Structures can show the parent of a compound that is named as a salt. Where two headings read alike, the source gives them in different places.
Legend:
iNOS (Type 2) = iNOS (Type 2) (Rattus norvegicus, UniProt Q06518); assay: biochemical; format: biochemical; conditions: for IC50: read-out: IC50 value, iNOS (Type 2)
E-cNOS (Type 3) = target: T1, E-cNOS (Type 3) (Bos taurus, UniProt P29473); assay: biochemical
T1 construct: the resulting supernatant was used as the crude enzyme sample of E-cNOS; endogenous in cells; host or cells: CPAE (cow pulmonary arterial endothelium cells), 1% Triton X-100 extract, 100,000 x g supernatant
T1 sequence (P29473 2-1205): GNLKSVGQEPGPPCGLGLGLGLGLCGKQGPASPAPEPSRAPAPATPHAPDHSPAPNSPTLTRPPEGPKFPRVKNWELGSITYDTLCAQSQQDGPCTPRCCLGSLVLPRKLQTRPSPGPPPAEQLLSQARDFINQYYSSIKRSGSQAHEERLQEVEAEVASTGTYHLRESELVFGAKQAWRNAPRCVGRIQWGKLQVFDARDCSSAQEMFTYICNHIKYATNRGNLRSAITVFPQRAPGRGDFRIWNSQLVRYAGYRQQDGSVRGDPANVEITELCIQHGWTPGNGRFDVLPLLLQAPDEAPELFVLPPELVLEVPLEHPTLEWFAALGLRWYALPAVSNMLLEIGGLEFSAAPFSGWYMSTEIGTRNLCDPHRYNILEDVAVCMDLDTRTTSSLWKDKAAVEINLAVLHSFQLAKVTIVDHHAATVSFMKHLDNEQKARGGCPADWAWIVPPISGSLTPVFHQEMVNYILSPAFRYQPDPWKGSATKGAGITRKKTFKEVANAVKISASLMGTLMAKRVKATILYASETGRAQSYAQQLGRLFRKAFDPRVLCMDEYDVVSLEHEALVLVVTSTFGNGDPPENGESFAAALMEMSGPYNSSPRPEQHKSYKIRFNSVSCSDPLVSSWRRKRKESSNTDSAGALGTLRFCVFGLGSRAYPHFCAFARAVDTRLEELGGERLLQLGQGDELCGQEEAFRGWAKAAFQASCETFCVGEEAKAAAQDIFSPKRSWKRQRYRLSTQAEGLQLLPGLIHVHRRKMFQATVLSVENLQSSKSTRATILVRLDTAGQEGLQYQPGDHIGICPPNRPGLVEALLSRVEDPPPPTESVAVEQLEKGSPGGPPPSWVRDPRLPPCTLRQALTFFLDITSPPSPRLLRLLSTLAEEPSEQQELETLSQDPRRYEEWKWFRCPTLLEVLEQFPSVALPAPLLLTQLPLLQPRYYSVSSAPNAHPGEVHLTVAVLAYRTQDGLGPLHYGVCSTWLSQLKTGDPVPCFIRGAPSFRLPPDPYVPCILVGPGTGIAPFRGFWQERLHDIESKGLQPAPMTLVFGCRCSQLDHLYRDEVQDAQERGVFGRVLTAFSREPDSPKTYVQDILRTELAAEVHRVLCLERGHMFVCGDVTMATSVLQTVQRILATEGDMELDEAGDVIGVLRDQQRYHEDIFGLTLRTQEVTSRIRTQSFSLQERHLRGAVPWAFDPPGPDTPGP
Method: The crude enzyme sample of E-cNOS was prepared by the following procedure. A cow pulmonary arterial endothielium cell (CPAE) was cultured in a MEM medium containing 20% FBS. […] A suitable amount of Ca- and Mg-free phosphate buffer (pH 7.4) was added to the precipitating cells and they were centrifuged at 1,000 rpm for 10 min. The same step was repeated to wash the cells which, upon addition of 50 mM Tris-HCl (pH 7.4) containing 1% Triton X-100 and 1 mM DTT, were left to stand in ice for 1 h. Subsequently, the mixture was homogenized for 3 min and kept in ice for 30 min with occasional stirring. Finally, the mixture was centrifuged at 100,000×g for 60 min and the resulting supernatant was used as the crude enzyme sample of E-cNOS.
The reaction was started by addition of L-[^3H]arginine and following incubation at 37° C. for 10 min, the reaction was terminated by addition of 2 ml of 50 mM Tris-HCl (pH 5.5) containing 1 mM EDTA and placing the mixture on ice. The reaction solution was passed through a cation-exchange resin column (Dowex AG50WX-8, Na^+ form, 3.2 ml) to separate the reaction product L-[^3H]citrulline from the unreacted residual substrate L-[^3H]arginine. The eluate was combined with another eluate resulting from the passage of a given amount of distilled water through the column and put into a minivial for recovery of L-[^3H]citrulline. Thereafter, a scintillation fluid was added and the contained radioactivity was measured with a liquid scintillation counter to determine the amount of L-[^3H]citrulline.
The activity of N-cNOS or E-cNOS was determined by subtracting the activity as detected in the absence of CaCl2 and calmodulin from the activity as detected in the presence of CaCl2 and calmodulin. […] The protein concentration of each crude enzyme sample was determined with a micro-assay kit of Biorad Co. Each experiment was conducted in a duplicate.

[1] = mean of one to four independent experiments, crude enzyme, 100 nM L-[3H]arginine, read-out: IC50 value, E-cNOS (Type 3)
[2] = mean of one to four independent experiments, crude enzyme, 100 nM L-[3H]arginine, without CaCl2 and calmodulin

Sequence of iNOS (Type 2) (Q06518 whole entry, looked up): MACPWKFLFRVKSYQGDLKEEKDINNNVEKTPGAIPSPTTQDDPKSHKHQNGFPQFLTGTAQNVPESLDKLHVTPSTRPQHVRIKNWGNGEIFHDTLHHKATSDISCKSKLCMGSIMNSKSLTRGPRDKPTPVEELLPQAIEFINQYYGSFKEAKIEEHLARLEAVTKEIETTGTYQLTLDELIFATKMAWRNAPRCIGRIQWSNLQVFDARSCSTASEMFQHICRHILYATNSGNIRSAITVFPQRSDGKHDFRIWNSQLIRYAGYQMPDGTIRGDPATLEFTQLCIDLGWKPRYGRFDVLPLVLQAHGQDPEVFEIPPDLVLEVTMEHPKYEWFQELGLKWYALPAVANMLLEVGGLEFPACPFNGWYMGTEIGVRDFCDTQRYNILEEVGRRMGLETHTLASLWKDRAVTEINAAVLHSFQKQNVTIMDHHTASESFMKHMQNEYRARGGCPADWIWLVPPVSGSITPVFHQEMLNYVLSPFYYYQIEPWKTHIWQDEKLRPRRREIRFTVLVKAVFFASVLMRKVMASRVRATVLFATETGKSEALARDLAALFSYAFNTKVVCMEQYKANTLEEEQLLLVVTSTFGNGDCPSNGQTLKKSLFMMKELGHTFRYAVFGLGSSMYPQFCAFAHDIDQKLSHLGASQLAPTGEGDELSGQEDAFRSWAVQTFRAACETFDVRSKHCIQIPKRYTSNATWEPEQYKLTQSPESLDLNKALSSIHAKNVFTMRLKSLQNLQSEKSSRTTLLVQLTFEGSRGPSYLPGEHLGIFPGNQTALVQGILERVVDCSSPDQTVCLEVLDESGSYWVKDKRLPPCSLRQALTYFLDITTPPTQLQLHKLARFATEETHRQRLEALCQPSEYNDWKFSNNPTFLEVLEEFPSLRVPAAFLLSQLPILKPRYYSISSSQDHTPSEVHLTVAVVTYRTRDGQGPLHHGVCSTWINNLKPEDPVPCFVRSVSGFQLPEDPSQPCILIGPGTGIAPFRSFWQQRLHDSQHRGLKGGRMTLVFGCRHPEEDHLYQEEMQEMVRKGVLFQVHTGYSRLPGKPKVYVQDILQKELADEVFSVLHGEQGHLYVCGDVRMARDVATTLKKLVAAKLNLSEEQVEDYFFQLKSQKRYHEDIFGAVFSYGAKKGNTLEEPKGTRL

CNC(=N)NCCC[C@H](N)C(=O)O [L-NMMA, N^G-monomethyl-L-arginine, reference compound]
IC50 (iNOS (Type 2)): 3480 nM

CCSC(=N)Nc1ccc(F)c(CN)c1 [Example 317, N-(5-(S-ethylisothioureido)-2-fluorophenylmethyl)amine dihydrochloride]
IC50 (E-cNOS (Type 3); [1]): 239 nM

CCSC(=N)Nc1ccc(NCc2ccccc2)c(CN)c1 [Example 438, N-(2-benzylamino-5-(S-ethylisothioureido)phenylmethyl)amine trihydrochloride]
IC50 (E-cNOS (Type 3); [1]): 6950 nM

N=C(Nc1ccc(CCN)cc1)N[N+](=O)[O-] [Example 54, N-(4-(N′-nitroguanidino)phenylethyl)amine]
IC50 (iNOS (Type 2); [2]): 5020 nM

CCSC(=N)Nc1ccc(C(CN)C(=O)OC)cc1 (stereo not drawn) [Example 226, 3-amino-2-(4-(S-ethylisothioureido)phenyl)propionic acid methyl ester dihydrochloride]
IC50 (E-cNOS (Type 3); [1]): 1440 nM

CCN=C(N)Nc1ccc(CCN)c(F)c1 [Example 258, N-(2-(4-(N′-ethylguanidino)-2-fluorophenyl)ethyl)amine dihydrochloride]
IC50 (E-cNOS (Type 3)): 1090 nM

CCN=C(N)Nc1cccc(CN)c1C [Example 533, N-(3-(N′-ethylguanidino)-2-methylphenylmethyl)amine dihydrochloride]
IC50 (E-cNOS (Type 3); [1]): 3770 nM

CCSC(=N)Nc1ccc(CCN)c(OC)c1 [Example 482, N-(2-(4-(S-ethylisothioureido)-2-methoxyphenyl)ethyl)amine dihydrochloride]
IC50 (E-cNOS (Type 3)): 1990 nM

CC(N)c1cccc(NC(N)=N[N+](=O)[O-])c1 (stereo not drawn) [Example 14, N-(1-(3-(N′-nitroguanidino)phenyl)ethyl)amine hydrochloride]
IC50 (iNOS (Type 2); [2]): 3680 nM

CCN=C(N)Nc1cccc(CN(C)C)c1 [Example 374, N-(3-(N′-ethylguanidino)phenylmethyl)dimethylamine dihydrochloride]
IC50 (E-cNOS (Type 3); [1]): 1290 nM

N=C(NCCC[C@H](N)C(=O)O)NC1CC1 [L-CPA, N^G-cyclpropyl-L-arginine, reference compound]
IC50 (E-cNOS (Type 3); [1]): 987 nM

CCSC(=N)Nc1cccc(C2(N)CCC2)c1 [Example 162, N-(1-(3-(S-ethylisothioureido)phenyl)cyclobutyl)amine dihydrochloride]
IC50 (E-cNOS (Type 3); [1]): 576 nM

CSC(=N)Nc1cccc(C2(N)CCCCC2)c1 [Example 142, N-(1-(3-(S-methylisothioureido)phenyl)cyclohexyl)amine dihydrochloride]
IC50 (E-cNOS (Type 3)): 663 nM

CCN=C(N)Nc1ccc(CCN)cc1 [Example 528, N-(2-(4-(N′-ethylguanidino)phenyl)ethyl)amine dihydrochloride]
IC50 (E-cNOS (Type 3); [1]): 436 nM

CCSC(=N)Nc1cccc(C2(N)CC2)c1 [Example 167, N-(1-(3-(S-ethylisothioureido)phenyl)cyclopropyl)amine dihydrochloride]
IC50 (E-cNOS (Type 3); [1]): 366 nM

CN(C)c1ccc(NC(N)=N[N+](=O)[O-])cc1CN [Example 281, N-(2-dimethylamino-5-(N′-nitroguanidino)phenylmethyl)amine dihydrochloride]
IC50 (E-cNOS (Type 3); [1]): 1620 nM

CCN(C)C(=N)Nc1cccc(CN)c1 [Example 305, N-(3-(N′-ethyl-N′-methylguanidino)phenylmethyl)amine dihydrochloride]
IC50 (E-cNOS (Type 3); [1]): 1710 nM

NC(=N[N+](=O)[O-])Nc1cccc(C2(N)CCCC2)c1 [Example 171, N-(1-(3-(N′-nitroguanidino)phenyl)cyclopentyl)amine hydrochloride]
IC50 (E-cNOS (Type 3); [1]): 29.2 nM

CCN=C(N)Nc1cccc(CNC)c1 [Example 376, N-(3-(N′-ethylguanidino)phenylmethyl)methylamine dihydrochloride]
IC50 (E-cNOS (Type 3); [1]): 339 nM

N=C(Nc1cccc(CN)c1)N[N+](=O)[O-] [Example 34, N-(3-(N′-nitroguanidino)phenylmethyl)amine]
IC50 (iNOS (Type 2); mean of one to four independent experiments, LPS-treated rat lung crude enzyme): 6760 nM

NC(=N[N+](=O)[O-])Nc1cccc(C2(N)CCCCC2)c1 [Example 169, N-(1-(3-(N′-nitroguanidino)phenyl)cyclohexyl)amine hydrochloride]
IC50 (E-cNOS (Type 3)): 41.5 nM

CCSC(=N)Nc1cccc(C2(N)CCCC2)c1 [Example 153, N-(1-(3-(S-ethylisothioureido)phenyl)cyclopentyl)amine dihydrochloride]
IC50 (E-cNOS (Type 3); [1]): 423 nM

CCC(N)c1cccc(NC(=N)SC)c1 (stereo not drawn) [Example 19, N-(1-(3-(S-methylisothioureido)phenyl)propyl)amine dihydrochloride]
IC50 (iNOS (Type 2); [2]): 2400 nM

CCSC(=N)Nc1ccc(N(C)CC)c(CN)c1 [Example 288, N-(5-(S-ethylisothioureido)-2-(N-ethyl-N-methylamino)phenylmethyl)amine trihydrochloride]
IC50 (E-cNOS (Type 3); [1]): 1260 nM

CSC(=N)Nc1cccc(C2(N)CCC2)c1 [Example 160, N-(1-(3-(S-methylisothioureido)phenyl)cyclobutyl)amine dihydrochloride]
IC50 (E-cNOS (Type 3); [1]): 477 nM

CCSC(=N)Nc1cccc(C(C)N)c1 (stereo not drawn) [Example 175, N-(1-(3-(S-ethylisothioureido)phenyl)ethyl)amine dihydrochloride]
IC50 (E-cNOS (Type 3); [1]): 200 nM

CSC(=N)Nc1cccc(CCN)c1 [Example 60, N-(3-(S-methylisothioureido)phenylethyl)amine dihydrochloride]
IC50 (iNOS (Type 2); [2]): 6750 nM

CN=C(N)Nc1cccc(CN)c1 [Example 367, N-(3-(N′-methylguanidino)phenylmethyl)amine dihydrochloride]
IC50 (E-cNOS (Type 3); [1]): 3710 nM

CCSC(=N)Nc1cccc(CN)c1.Cl.Cl [Example 28, N-(3-(S-ethylisothioureido)phenylmethyl)amine dihydrochloride]
iNOS inhibitory potency compared with the existing NOS inhibitors (L-MIN) (iNOS (Type 2); conclusion from Tables 49, 50 and 51): more potent in inhibiting iNOS than L-MIN | IC50 (iNOS (Type 2); [2]): 32.7 nM

CCN=C(N)Nc1cccc(CCN)c1 [Example 543, N-(3-(N′-ethylguanidino)phenylethyl)amine dihydrochloride]
IC50 (E-cNOS (Type 3); [1]): 3120 nM

NCc1cc(NC(N)=N[N+](=O)[O-])ccc1OCc1ccccc1 [Example 341, N-(2-benzyloxy-5-(N′-nitroguanidino)phenylmethyl)amine hydrochloride]
IC50 (E-cNOS (Type 3); [1]): 874 nM

CSC(=N)Nc1cccc(C2(N)CCCC2)c1 [Example 151, N-(1-(3-(S-methylisothioureido)phenyl)cyclopentyl)amine dihydrochloride]
IC50 (E-cNOS (Type 3); [1]): 262 nM

CCN=C(N)Nc1cccc(C2(N)CCCC2)c1 [Example 236, N-(1-(3-(N′-ethylguanidino)phenyl)cyclopentyl)amine dihydrochloride]
IC50 (E-cNOS (Type 3); [1]): 325 nM

CCSC(=N)Nc1cccc(C2(N)CCCCC2)c1 [Example 144, N-(1-(3-(S-ethylisothioureido)phenyl)cyclohexyl)amine dihydrochloride]
IC50 (E-cNOS (Type 3)): 898 nM

CCN=C(N)Nc1cccc(C(C)(C)N)c1 [Example 300, N-(1-(3-(N′-ethylguanidino)phenyl)-1-methylethyl) amine dihydrochloride]
IC50 (E-cNOS (Type 3); [1]): 492 nM

CCN=C(N)Nc1ccc(N(C)CC)c(CN)c1 [Example 285, N-(5-(N′-ethylguanidino)-2-(N-ethyl-N-methyl-amino)phenylmethyl)amine trihydrochloride]
IC50 (E-cNOS (Type 3); [1]): 7310 nM

N=C(Nc1cccc(C2(N)CCC2)c1)N[N+](=O)[O-] [Example 173, N-(1-(3-(N′-nitroguanidino)phenyl)cyclobutyl)amine hydrochoride]
IC50 (E-cNOS (Type 3); [1]): 24.1 nM

CCSC(=N)Nc1cccc(CNC)c1C [Example 411, N-(3-(S-ethylisothioureido)-2-methylphenylmethyl)methylamine dihydrochloride]
IC50 (E-cNOS (Type 3); [1]): 341 nM

CCN=C(N)Nc1cccc(C2(N)CCC2)c1 [Example 238, N-(1-(3-(N′-ethylguanidino)phenyl)cyclobutyl)amine dihydrochloride]
IC50 (E-cNOS (Type 3); [1]): 1160 nM

CCNc1ccc(NC(=N)SCC)cc1CN(C(=O)OC(C)(C)C)C(=O)OC(C)(C)C [Example 458, N-(2-ethylamino-5-(S-ethylisothioureido)phenylmethyl)iminodicarboxylic acid di-t-butyl ester]
IC50 (E-cNOS (Type 3); [1]): 4100 nM

CCSC(=N)Nc1ccc(C(C)(C)CN)cc1 [Example 185, N-(2-(4-(S-ethylisothioureido)phenyl)-2-methylpropyl)amine dihydrochloride]
IC50 (E-cNOS (Type 3); mean of one to four independent experiments, CPAE cell crude enzyme, read-out: IC50 value, E-cNOS (Type 3)): 3170 nM

CCSC(=N)Nc1cccc(CNN)c1 [Example 355, 3-(S-ethylisothioureido)phenylmethylhydrazine trihydrochloride]
IC50 (E-cNOS (Type 3); [1]): 662 nM

CCSC(=N)Nc1ccc(CC(C)(C)N)cc1 [Example 193, N-(1,1-dimethyl-2-(4-(S-ethylisothioureido)phenyl)ethyl)amine dihydrochloride]
IC50 (E-cNOS (Type 3)): 1540 nM

CCSC(=N)Nc1cccc(C(N)CC)c1 (stereo not drawn) [Example 177, N-(1-(3-(S-ethylisothioureido)phenyl)propyl)amine dihydrochloride]
IC50 (E-cNOS (Type 3); [1]): 510 nM

CCSC(=N)Nc1ccc(OC)c(CN)c1OC [Example 298, N-(2,6-dimethoxy-3-(S-ethylisothioureido)phenylmethyl)amine dihydrochloride]
IC50 (E-cNOS (Type 3); [1]): 4140 nM

CCSC(=N)Nc1cccc(CNC)c1 [Example 47, N-(3-(S-ethylisothioureido)phenylmethyl)methylamine dihydrochloride]
IC50 (E-cNOS (Type 3); [1]): 72.9 nM

CCSC(=N)Nc1cccc(CN(C)C)c1 [Example 372, N-(3-(S-ethylisothioureido)phenylmethyl)dimethylamine]
IC50 (E-cNOS (Type 3); [1]): 360 nM

CCSC(=N)Nc1cccc(C(C)NC)c1 (stereo not drawn) [Example 112, N-(1-(3-(S-ethylisothiourido)phenyl)ethyl)methylamine dihydrochloride]
IC50 (E-cNOS (Type 3); [1]): 408 nM

CCN=C(N)Nc1cccc(C2(N)CCCCC2)c1 [Example 234, N-(1-(3-(N′-ethylguanidino)phenyl)cyclohexyl)amine dihydrochloride]
IC50 (E-cNOS (Type 3)): 1170 nM

CCSC(=N)Nc1cccc(CN)c1Cl [Example 137, N-(2-chloro-3-(S-ethylisothioureido)phenylmethyl)amine dihydrochloride]
IC50 (E-cNOS (Type 3); [1]): 485 nM
